Experimental findings from patent US11572399B2, “Long-acting GIP peptide analogues” (University of Copenhagen, priority 2017, dated 2023) are described below.

Peptide text beside a SMILES is read from it. * marks the point of attachment. C16 diacid = O=C(O)CCCCCCCCCCCCCCC(=O)*; Palmitoyl = CCCCCCCCCCCCCCCC(=O)*

In series [1] the target is T1, human GIP receptor (Homo sapiens, UniProt P48546).
T1 construct: host or cells: COS-7, transient transfection (calcium phosphate), cDNA in pCMV-Script
T1 sequence (P48546 22-466): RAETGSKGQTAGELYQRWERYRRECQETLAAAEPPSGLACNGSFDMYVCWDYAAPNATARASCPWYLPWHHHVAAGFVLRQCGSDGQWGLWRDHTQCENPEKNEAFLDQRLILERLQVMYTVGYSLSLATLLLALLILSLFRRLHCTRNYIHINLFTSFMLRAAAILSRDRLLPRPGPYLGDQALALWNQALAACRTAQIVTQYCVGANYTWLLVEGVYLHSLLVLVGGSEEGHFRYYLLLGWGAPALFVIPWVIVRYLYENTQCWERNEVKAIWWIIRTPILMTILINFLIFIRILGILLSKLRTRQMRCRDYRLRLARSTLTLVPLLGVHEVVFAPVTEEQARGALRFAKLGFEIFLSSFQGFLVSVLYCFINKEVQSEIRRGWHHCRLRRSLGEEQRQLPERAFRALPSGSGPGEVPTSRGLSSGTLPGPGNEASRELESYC
Briefly: cAMP accumulation assay, antagonism of a GIP-mediated cAMP response (50-80% of max). In kind it is cell-based. How it is done: The day after, the cells were washed twice with Hepes buffered saline (HBS) buffer and incubated with HBS and 1 mM 3-isobutyl-1-methylxanthine (IBMX) for 30 min at 37° C. […] The HitHunter™ cAMP XS assay (DiscoveRx) was carried out according to the manufacturer's instructions.
Background: Changes in cAMP serve as a functional read-out for many G protein-coupled receptors.

Series [2] deals with T1, human GIP receptor. The series can be described thus: cAMP accumulation assay, agonism (ligand alone). In kind it is cell-based. To be noted: COS-7 cells, Table 1; for Emax: COS-7, intrinsic cAMP activity.
Series [3] concerns the target T1, human GIP receptor. The series can be described thus: 125I-human GIP competition binding assay, in the presence and absence of 2% HSA.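 Further: nonspecific binding taken as radioligand bound to untransfected cells, IC50 obtained from nonlinear regression fits.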
[4] abbreviates: transiently transfected COS-7 cells, Table 1 and text, read-out: cAMP antagonism nM (IC50, antagonistic potency).

As for `CCCCCCCCCCCCCCCC(=O)NCCCC[C@H](NC(=O)[C@@H](NC(=O)[C@H](CCCCN)NC(=O)[C@H](CC(=O)O)NC(=O)[C@H](CC(C)C)NC(=O)[C@H](C)NC(=O)[C@@H](NC(=O)[C@H](CO)NC(=O)[C@H](Cc1ccc(O)cc1)NC(=O)[C@H](CC(=O)O)NC(=O)[C@H](CO)NC(=O)[C@@H](NC(=O)[C@H](Cc1ccccc1)NC(=O)[C@@H](NC(=O)CNC(=O)[C@@H](N)CCC(=O)O)[C@@H](C)O)[C@@H](C)CC)[C@@H](C)CC)[C@@H](C)CC)C(=O)N[C@@H](CCC(N)=O)C(=O)N[C@@H](CCC(N)=O)C(=O)N[C@@H](CC(=O)O)C(=O)N[C@@H](Cc1ccccc1)C(=O)N[C@H](C(=O)N[C@@H](CC(N)=O)C(=O)N[C@@H](Cc1c[nH]c2ccccc12)C(=O)N[C@@H](CC(C)C)C(=O)N[C@@H](CC(C)C)C(=O)N[C@@H](C)C(=O)N[C@@H](CCC(N)=O)C(=O)N[C@@H](CCCCN)C(N)=O)C(C)C` [AT143, [hGIP(3-30)NH2[M14L; H18K]-C16/18]] (H-EGTFISDYSIALDKIK(Palmitoyl)QQDFVNWLLAQK-NH2; N-terminus assumed), the “cAMP - antagonisme fold (paired)” value at human GIP receptor [1] (fold vs GIP(3-30)NH2, Table 3b) is 0.3 fold. Also, the IC50 at human GIP receptor [1] (setting [4]) is 15 nM; at human GIP receptor [3] (0.1% casein, no HSA, Table 3b, read-out: Binding logIC50 0.1% casein (converted)), 86.1 nM; on human GIP receptor [3] (2% HSA, Table 3b, read-out: Binding logIC50 2% HSA (converted)), 105 nM; on human GIP receptor [3] (Table 3b, initial data, read-out: Binding IC50) it was 86.1 nM; at human GIP receptor [3] (heterologous competition binding, transiently transfected COS-7 cells expressing the human GIP receptor, read-out: Binding), 80 nM. Moreover, on human GIP receptor [2], the Emax (commonly the size of the effect at its maximum, as opposed to the concentration needed) was determined as 40%. In addition, at human GIP receptor [3] (fold decrease in affinity compared to GIP(3-30)NH2, Table 3b), the “Binding fold (paired)” value is listed as 11 fold. Besides, the “Fold change in affinity, IC50 (plus HSA)/IC50 (minus HSA)” value on human GIP receptor [3] (presence vs absence of 2% HSA, proxy for albumin binding) came to 1.2 fold.
Take `CC[C@H](C)[C@H](NC(=O)[C@H](CO)NC(=O)[C@H](Cc1ccc(O)cc1)NC(=O)[C@H](CC(=O)O)NC(=O)[C@H](CO)NC(=O)[C@@H](NC(=O)[C@H](Cc1ccccc1)NC(=O)[C@@H](N)[C@@H](C)O)[C@@H](C)CC)C(=O)N[C@@H](C)C(=O)N[C@@H](CCSC)C(=O)N[C@@H](CC(=O)O)C(=O)N[C@@H](CCCCN)C(=O)N[C@H](C(=O)N[C@@H](CCCCNC(=O)CCCCCCCCCCCCCCC(=O)O)C(=O)N[C@@H](CCC(N)=O)C(=O)N[C@@H](CCC(N)=O)C(=O)N[C@@H](CC(=O)O)C(=O)N[C@@H](Cc1ccccc1)C(=O)N[C@H](C(=O)N[C@@H](CC(N)=O)C(=O)N[C@@H](Cc1c[nH]c2ccccc12)C(=O)N[C@@H](CC(C)C)C(=O)N[C@@H](CC(C)C)C(=O)N[C@@H](C)C(=O)N[C@@H](CCC(N)=O)C(=O)N[C@@H](CCCCN)C(N)=O)C(C)C)[C@@H](C)CC` [AT156, [hGIP(5-30)NH2[H18K]-C16diacid/18]] (H-TFISDYSIAMDKIK(C16 diacid)QQDFVNWLLAQK-NH2; N-terminus assumed): the IC50 on human GIP receptor [1] (antagonism of GIP-mediated cAMP response, COS-7 cells, read-out: cAMP accumulation IC50) is 24 nM; on human GIP receptor [1] (setting [4]), 12 nM. In addition, the “Fold change of IC50 versus GIP(5-30)NH2” value at human GIP receptor [1] (fold change of IC50 from GIP(5-30)NH2) is 0.9. Moreover, the Emax on human GIP receptor [2] amounted to 12%. Moreover, the EC50 (commonly the midpoint of the concentration-response curve) at human GIP receptor [2] (read-out: cAMP agonism nM (EC50)) worked out at 2 nM. In addition, the Ki (as a rule, the dissociation constant of the complex between target and ligand, obtained from inhibition or displacement) turned out to be 5 nM at human GIP receptor [3] (absence of HSA) and 29 nM on human GIP receptor [3] (presence of 2% HSA). Moreover, the “Binding (+/−HSA) Fold” value on human GIP receptor [3] (fold change +HSA/−HSA) turned out to be 5.8.
